Data from patent publication US12491187B2, “Use of MCT1 inhibitors to enhance insulin sensitivity” (H. LEE MOFFIT CANCER CENTER AND RESEARCH INSTITUTE, INC., priority 2022, dated 2025).

Experiments:
Format in all cases: cell-based, murine
[1] = tested on: differentiated 3T3-L1 adipocytes; assay: NAD+/NADH ratio (NAD+/NADH-Glo); details: 1 μM
Description: NAD+/NADH Ratio: 3T3-L1 cells were seeded, differentiated and treated with or without AZD3965 (1 μM) for 15 min, 30 min, 1 hr, 4 hr, 8 hr or 24 hr in clear 96 well plates (Corning®). Following incubation with the compound, the NAD+/NADH-Glo™ (Promega®) kit was used to measure both the NAD+ and NADH concentrations within each sample according to the manufacturer's protocol. Briefly, samples were lysed and split into 2 separate white 96 well plates (Corning®). One plate was treated with a strong acid (0.4N HCl) to eliminate NADH in the sample while the other plate was treated with a strong base (0.2N NaOH) to eliminate NAD+, and both plates were incubated at 60° C. for 15 minutes. Samples were then neutralized and subjected to the NAD+/NADH-Glo™ assay. Within this assay, in the presence of NAD+ or NADH, an enzyme ‘Reductase’ reduces a pro-luciferin reductase substrate to form luciferin which emits a luminescent signal directly proportional to the quantity of NAD+ or NADH within the sample. Luminescence was read on a spectrophotometer (FlexStation 3; Molecular Devices). To calculate the NAD+/NADH ratio for each sample, luminescence from acid-treated samples, (reflecting NAD+level), was divided by the luminescence signal from the corresponding base-treated samples (reflecting NADH levels).

[2] = tested on: differentiated 3T3-L1 adipocytes; assay: Ki67 expression (confocal microscopy and quantification); details: 1 μM, 24 hr, vs untreated adipocytes
Description: Confocal Microscopy: Cells were seeded and differentiated on 8 chamber μ-Slides (Ibidi®). Differentiated cells treated with vehicle (DMSO) or 1 μM AZD3965 for 24 hr were fixed in 4% PFA for 10 min at room temperature, permeabilized with 0.1% Triton™ X-100 in PBS and blocked with 3% BSA in PBS for an hr. Cells were subsequently incubated with Ki67 antibody (NBP2-22112, Novus Biologicals) at a 1:500 dilution in PBS 3% BSA overnight at 4° C. Cells were washed with PBS and incubated with goat anti-rabbit Alexa Fluor 647 secondary antibody (Invitrogen) at 1:2000 dilution in PBS 3% BSA for 1 hr. Lipid droplets were stained with BODIPY® (Invitrogen) for 20 min at room temperature according to the manufacturer's recommendations. Nuclei were stained for 20 min at room temperature with 4,6-diamidino-2-phenylindole (DAPI) (Sigma-Aldrich) in PBS 3% BSA, diluted at 1:5000 from a 1 mg/ml stock. Images were acquired on the Leica TCS SP8 laser scanning confocal microscope Leica Microsystems) at a magnification of 630× with 3× zoom. Ki67 Expression Quantification: Slides were prepared as outlined in ‘Confocal Microscopy’, After staining, Ki67 expression was imaged and analyzed on the Cytation 5 Cell Imaging Multi-Mode reader (BioTek Instruments) through the measure of fluorescence intensity and deep red fluorescent (Alexa647) positive pixels. […]

[3] = tested on: differentiated 3T3-L1 (WT) cells; assay: Oil Red O staining of fully differentiated adipocytes; details: 1 μM, 24 hr, 48 hr or 72 hr
Description: Differentiation Protocol: The 3T3-L1 differentiation protocol was adapted from Green and Meuth (1974) (Zebisch, K, et al. Anal. Biochem. 2012 425:88-90; Green, H, et al. Cell 1974 3:127-133). Cells were seeded at approximately 80% confluency and allowed to reach confluency prior to induction of differentiation. 1-2 days post confluency, growth media was changed to ‘day 0’ media consisting of media supplemented with 0.5 mM 1-methyl-3-isobutyl xanthine (IBMX), 1 µM dexamethasone, and 10 μg/mL insulin. On ‘day 3’ media was changed to growth media with 10 μg/mL insulin only, and on ‘day 6’ media was replaced with normal growth media. After day 6, the complete media was refreshed every 2 days. Using Oil Red O staining, RT-qPCR and immunoblotting, it was determined that 3T3-L1 cells were fully differentiated into lipid-laden adipocytes by ‘day 8’ of the protocol, as reported by others (Petersen, C, et al. Sci. Rep. 2017 7:13101; Mangum, L H, et al. Toxicol. Lett. 2015 238:65-71). All differentiation experiments were performed on cells between passage 4 and 6 to ensure differentiation efficiency was consistent. Oil Red O Staining: Cells were then fixed with 4% PFA for 10 minutes. […] 10× images of cells were taken from randomized fields of view with the Cytation 5 Cell Imaging Multi-Mode reader (BioTek Instruments). Lipid content was also quantified on the Cytation 5.

[4] = tested on: differentiated 3T3-L1 adipocytes; assay: Adipokine antibody array on conditioned media; details: 72 hr treatment, media conditioned 24 hr
Description: Adipokine Antibody Array: 3T3-L1 cells were differentiated and treated with or without AZD3965 for 72 hr. After this incubation, media was replenished, and adipocytes were cultured for an additional 24 hr to allow for adipokine secretion and media conditioning. Media was collected and analyzed for adipokine secretion with the Proteome Profiler Mouse Adipokine Array Kit (R&D Systems) according to the manufacturer's instructions. Chemiluminescence was detected with the LI-COR Odyssey® XF Imaging System with a 2 minute exposure time. Positive signals were quantified using Image Studio™ (LI-COR Biosciences) to quantify signal intensity. Data presented represent signal intensity normalized by the signal intensity of reference antibodies within the array.

## Cc1[nH]nc(C(F)(F)F)c1Cc1sc2c(c1C(=O)N1C[C@](C)(O)CO1)c(=O)n(C)c(=O)n2C(C)C [AZD3965, 5-[[(4S)-4-hydroxy-4-methyl-2-isoxazolidinyl]carbonyl]-3-methyl-1-(1-methylethyl)-6-[[5-methyl-3-(trifluoromethyl)-1H-pyrazol-4-yl]methyl]-thieno[2,3-d]pyrimidine-2,4 (1H, 3H)-dione]
[1]; all time points measured (15 min-24 hr)
  NAD+/NADH ratio: significant change
[1]; first 8 hr of treatment
  NAD+/NADH ratio: significant decrease
[2]
  expression of Ki67: significant increase
[3]
  lipid content (Oil Red O staining) of differentiated adipocytes: progressive decrease in lipid content
[4]
  adipokine levels in conditioned media: no significant differences
